Data: the Bradley open melting point set (2014)
Several values for one entry are separate records, joined by “and”; a condition that tells them apart may be missing. Identical values can stand only once.

Compound | melting point
CC(C)(O)c1ccccc1 [2-phenyl-2-propanol] | 34 °C
C#CC(C)(O)c1ccccc1 (stereo not given) [2-phenyl-3-butyn-2-ol] | 49 °C
NCCc1ccccc1 [2-phenylethylamine] | -60 °C
Cc1cccc[n+]1[O-] [2-picoline n-oxide] | 48 °C
C=CCc1ccccc1C(=O)O [2-prop-2-en-1-ylbenzoic acid] | 84 °C
CC(C)S [2-propanethiol] | -131 °C
O=C1OS(=O)(=O)c2ccccc21 [2-sulfobenzoic anhydride] | 120 °C
CCCCCCCCCC(C)O (stereo not given) [2-undecanol] | 2 °C
CN(C)c1ccc(CNC2=CC(=O)c3ccccc3C2=O)cc1 [2-{[4-(dimethylamino)benzyl]amino}naphthalene-1,4-dione] | 166 °C
Cc1ccc(CNC2=CC(=O)c3ccccc3C2=O)nc1 [2-{[(5-methylpyridin-2-yl)methyl]amino}naphthalene-1,4-dione] | 135 °C
O=C1C=C(NCNc2ccccn2)C(=O)c2ccccc21 [2-{[(pyridin-2-ylamino)methyl]amino}naphthalene-1,4-dione] | 135 °C
Cc1cc(C)n(CN(CCO)Cn2nc(C)cc2C)n1 [2-{bis[(3,5-dimethyl-1H-pyrazol-1-yl)methyl]amino}ethanol] | 83 °C
COc1ccc([C@@H]2CC(=O)c3c(O)cc(O)cc3O2)cc1O [3',5,7-trihydroxy-4'-methoxyflavanone] | 230 °C
O=C1CC(c2cccc(O)c2)Oc2ccccc21 (stereo not given) [3'-hydroxyflavanone] | 140 °C
O=C(O)c1ccc(-c2cccc([N+](=O)[O-])c2)cc1 [3'-nitrobiphenyl-4-carboxylic acid] | 314 °C
Cc1cc(C)cc(-c2cc(C)cc(C)c2)c1 [3,3',5,5'-tetramethylbiphenyl] | 48 °C
COC1(OC)CCC2(C)C3CCC4(C)CCCC4(O)C3CCC2(C)C1 (stereo not given) [3,3-dimethoxy-5-methylandrostan-14-ol] | 147 °C
COC1(OC)CCC2(C)C(CCC3C4CCCC4(C)CCC32)C1 (stereo not given) [3,3-dimethoxyandrostane] | 80 °C
O=C1CCC2CCc3ccccc3C2O1 (stereo not given) [3,4,4a,5,6,10b-hexahydro-2H-benzo[h]chromen-2-one] | 139 °C
OB(O)c1cc(F)c(F)c(F)c1 [3,4,5-trifluorobenzeneboronic acid] | 277 °C
O=[N+]([O-])c1ccc(Cl)c(Cl)c1 [3,4-Dichloronitrobenzene] | 41.3 °C
COc1ccc(C(=O)O)cc1OC [3,4-Dimethoxybenzoic acid] | 181 °C
O=C(O)c1ccc2c(c1)OCCCO2 [3,4-dihydro-2h-1,5-benzodioxepin-7-carboxylic acid] | 148 °C
COc1ccc(/C=C/C(=O)c2ccccc2)cc1OC [3,4-dimethoxychalcone] | 89 °C
COc1ccc(CC#N)cc1OC [3,4-dimethoxyphenylacetonitrile] | 64 °C
CC(C)(C)C1=CC(=O)C(=O)C(C(C)(C)C)=C1 [3,5-Di-tert-butyl-1,2-benzoquinone] | 114 °C
CC(C)(C)c1cc(C(=S)NC2CCCCC2)cc(C(C)(C)C)c1O [3,5-Di-tert-butyl-N-cyclohexyl-4-hydroxy-thiobenzamide] | 228 °C
OB(O)c1cc(C(F)(F)F)cc(C(F)(F)F)c1 [3,5-bis(trifluoromethyl)benzeneboronic acid] | 222 °C

Compound | melting point
CC(C)(C)C1=CC(=O)C(=O)C(C(C)(C)C)=C1 [3,5-di-tert-butyl-o-benzoquinone] | 115 °C
COc1cc(C=O)cc(OC)c1 [3,5-dimethoxybenzaldehyde] | 47 °C
O=C(Cl)c1cc([N+](=O)[O-])cc([N+](=O)[O-])c1 [3,5-dinitrobenzoyl chloride] | 67 °C
CC(=O)OC1CCC2C3CCC4CC(=C(C)C)CCC4(C)C3CCC12C (stereo not given) [3-(1-methylethylidene)androstan-17-yl acetate] | 108 °C
CN1C(=O)c2ccccc2C1C=C(c1ccccc1)c1ccccc1 (stereo not given) [3-(2,2-Diphenylethenyl)-2-methylisoindolin-1-one] | 147 °C
C#CCOc1c(Cl)cccc1Cl [3-(2,6-dichlorophenoxy)-1-propyne] | 44 °C
O=C(O)/C=C/c1cccc(B(O)O)c1 [3-(2-carboxyvinyl)benzeneboronic acid] | 218 °C
O=C(O)/C=C/c1ccco1 [3-(2-furyl)acrylic acid] | 142 °C
COc1ccccc1OCC(O)CO (stereo not given) [3-(2-methoxyphenoxy)-1,2-propanediol] | 81 °C
O=C(O)CCSc1ccc2ccccc2c1 [3-(2-naphthylthio)propionic acid] | 105 °C
CN1C(=O)c2ccccc2C1C1=COCCC1 (stereo not given) [3-(3,4-Dihydro-2H-pyran-5-yl)-2-methylisoindolin-1-one] | 95.5 °C
Oc1cccc(N2CCOCC2)c1 [3-(4-morpholinyl)phenol] | 130 °C
OB(O)c1cccc(CBr)c1 [3-(bromomethyl)benzeneboronic acid] | 215 °C
CCOC(=O)c1cccc(B(O)O)c1 [3-(ethoxycarbonyl)benzeneboronic acid] | 137 °C
O=S(=O)(c1ccccc1)c1ccsc1 [3-(phenylsulfonyl)thiophene] | 116 °C
O=C(O)/C=C/c1cccc(OC(F)(F)F)c1 [3-(trifluoromethoxy)cinnamic acid] | 94 °C
O=C1SCCN1C(=O)c1ccccc1 [3-Benzoyl-1,3-thiazolidin-2-one] | 121 °C
Cc1ccc(N)cc1Cl [3-Chloro-4-methylaniline] | 26 °C
Oc1cccc(Cl)c1 [3-Chlorophenol] | 33 °C and 32.6 °C
CC(=O)Oc1cccc(-c2ccccc2)c1 [3-acetoxybiphenyl] | 34 °C
CC(=O)C1=CCC2(C)C(CCC3C4CCC(=O)C4(C)CCC32)C1 (stereo not given) [3-acetylandrost-2-en-17-one] | 153 °C
CC(=O)c1cccc(B(O)O)c1 [3-acetylbenzeneboronic acid] | 203 °C
CC(N)CCc1ccccc1 (stereo not given) [3-amino-1-phenylbutane] | -50 °C
NC1=NN(c2ccccc2)CC1 [3-amino-4,5-dihydro-1-phenyl-1h-pyrazole] | 169 °C
N#Cc1cccc(N)c1 [3-aminobenzonitrile] | 52 °C
COc1ccc(C(=O)O)cc1OCc1ccccc1 [3-benzyloxy-4-methoxybenzoic acid] | 180 °C
O=C(O)C(CBr)CBr [3-bromo-2-(bromomethyl)propionic acid] | 100 °C

Now from value to compound:

melting point | Compound
297 °C | c1ccc(-c2nc3ccccc3[nH]2)cc1 [2-phenylbenzimidazole]
130 °C | CC(=O)OC1=c2ccccc2=NC1c1ccccn1 (stereo not given) [2-pyridin-2-yl-1H-indol-3-yl acetate]
206 °C | O=C1COc2cccnc2N1 [2h-pyrido[3,2-b]-1,4-oxazin-3(4h)-one]
251 °C | O=c1cc(-c2ccc(O)c(O)c2)oc2ccccc12 [3',4'-dihydroxyflavone]
107 °C | CC(=O)c1cc(F)cc(F)c1O [3',5'-difluoro-2'-hydroxyacetophenone]
144 °C | CC(=O)c1cc(O)cc(O)c1 [3',5'-dihydroxyacetophenone]
20 °C | CC(=O)c1cc(C)cc(C)c1 [3',5'-dimethylacetophenone]
205 °C | Cc1ccc2oc(-c3cccc(O)c3)cc(=O)c2c1 [3'-hydroxy-6-methylflavone]
95 °C | CC(=O)c1cccc(O)c1 [3'-hydroxyacetophenone]
186 °C | Brc1n[nH]c(Br)c1Br [3,4,5-tribromo-1h-pyrazole]
5 °C | Brc1cscc1Br [3,4-dibromothiophene]
272 °C | OB(O)c1ccc(Cl)c(Cl)c1 [3,4-dichlorobenzeneboronic acid]
208 °C | O=C(O)c1ccc(Cl)c(Cl)c1 [3,4-dichlorobenzoic_acid]
-12 °C | FC(F)(F)c1ccc(Cl)c(Cl)c1 [3,4-dichlorobenzotrifluoride]
-15 °C | Cc1ccc(Cl)c(Cl)c1 [3,4-dichlorotoluene]
123 °C | O=C(O)c1ccc(F)c(F)c1 [3,4-difluorobenzoic acid]
155 °C | O=Cc1ccc(O)c(O)c1 [3,4-dihydroxybenzaldehyde]
55 °C | COc1c(OC)c(=O)c1=O [3,4-dimethoxy-3-cyclobutene-1,2-dione]

melting point | Compound
83 °C | COc1ccc(O)cc1OC [3,4-dimethoxyphenol]
27 °C | COc1ccc(C)cc1OC [3,4-dimethoxytoluene]
66 °C | Cc1ccc(C#N)cc1C [3,4-dimethylbenzonitrile]
30 °C | Cc1ccc(S)c(S)c1 [3,4-toluenedithiol]
142 °C | CC(C)(C)c1cc(C#N)cc(C(C)(C)C)c1O [3,5-di-tert-butyl-4-hydroxybenzonitrile]
41 °C | COc1cc(Cl)cc(Cl)c1 [3,5-dichloroanisole]
160 °C | NC(=O)c1cc(Cl)cc(Cl)c1 [3,5-dichlorobenzamide]
156 °C | NC(=O)c1cc(F)cc(F)c1 [3,5-difluorobenzamide]
189 °C | O=C(O)c1cc(F)cc(F)c1O [3,5-difluorosalicylic acid]
9 °C | Cc1cc(C)cc(C=O)c1 [3,5-dimethylbenzaldehyde]
64 °C | O=C(O)CCc1cccc(Br)c1 [3-(3-bromophenyl)propionic acid]
89 °C | CC(C)(C)[Si](C)(C)Oc1cccc(B(O)O)c1 [3-(tert-butyldimethylsiloxy)benzeneboronic acid]
194 °C | CC(=O)C1=C2C=CCC=C2N=C1 [3-Acetylindole]
157 °C | O=C(O)c1cccc(Br)c1 [3-Bromobenzoic acid]
148 °C | CC(=O)Nc1cccc(O)c1 [3-acetamidophenol]
136 °C | Nc1n[nH]cc1Br [3-amino-4-bromo-1h-pyrazole]
328 °C | Nc1cccc2c(=O)[nH][nH]c(=O)c12 [3-aminophthalhydrazide]
